row,SMILES,melting point [°C]
1,COC(=O)n1c(=O)oc2c(Cl)c(Cl)c(Cl)cc21,163 to 164
2,CSC(=S)NN=Cc1c[nH]cn1,259 to 261
3,COC(=O)c1cc2cc(OC)c(OC)cc2cn1,215
4,CN1CCN(C(=O)c2ccc(-c3[nH]nc4c3C(=O)c3c(NC(=O)NN5CCOCC5)cccc3-4)s2)CC1,186 to 187
5,COc1c(C=Cc2ccc(C=CC3=C(C#N)C(=C(C#N)C#N)OC3(c3ccccc3)C(F)(F)F)s2)cc2c3c1CCCN3CCC2 (stereo not given),156 to 160
6,CCCCCCCCCCCCc1nnn(C(C(=O)Nc2c(OC)cc(OC)cc2OC)c2ccccc2)n1 (stereo not given),141 to 145
7,CCN(c1ccc([N+](=O)[O-])cc1Cl)S(=O)(=O)c1ccc(C)cc1,118 to 119
8,CNc1cc(C(=O)CS(C)(=O)=O)cc(NC)c1Cl,165 to 167
9,Cc1cc2c(cc1Cl)[nH]c1c(C(=O)O)cccc12,310
10,NC1=Nc2ccccc2CC1,135 to 136
11,CC(=O)NCCCc1nc2cc(C3=NNC(=O)CC3C)ccc2[nH]1 (stereo not given),244 to 246
12,CCOCn1cnc2c(N)nc3ccccc3c21,255 to 261
13,COc1ccc([PH](=O)c2ccc(OC)cc2)cc1,126
14,Cc1cc(-c2cnn3c(C(F)(F)F)cc(-c4ccc(Cl)c(Cl)c4)nc23)ccn1,275
15,CCOc1ncc(SC)cc1C(=O)O,78 to 92
16,CC(NC(=O)c1cccc([N+](=O)[O-])c1)C(F)(F)F (stereo not given),130 to 131
17,CCCCCCCCCCCCCCCCCCOCC(COC(c1ccccc1)(c1ccccc1)c1ccccc1)OS(=O)(=O)c1ccc(C)cc1 (stereo not given),52 to 53
18,COc1cc(Nc2nccc(-c3ccsc3)n2)cc(OC)c1OC,163
19,Cc1cccc(-c2nc3cccnn3c2-c2ccnc(NC3CCCCC3)c2)c1,169 to 170
20,CC1(c2ccccc2)C2=C(COC2=O)Nc2cc3c(cc21)OCO3 (stereo not given),> 260
21,FC(F)(F)c1cc(C(F)(F)F)n2nc(SCc3ccccc3)nc2n1,78.5 to 80.5
22,N#Cc1c(NC(=O)CO)cccc1N1CCOCC1,123 to 126
23,N#Cc1[nH]n(C2CCCC2)c2nc(-c3ccncc3)nc(=O)c1-2,> 300

row,SMILES,melting point [°C]
1,COC(=O)CN1C(=O)[C@H](C(C)C)Oc2c(C(C)C)cccc21,67 to 68
2,COC(=O)NCc1cc(C(C)=NOCc2cccc(C)n2)ccc1C,72 to 75
3,Fc1cc(C(F)(F)F)cc(Cl)c1Oc1ccc2cn[nH]c2c1,134 to 143
4,Cc1ccc(-c2c(Cl)ncn2-c2ccc(S(C)(=O)=O)cc2)cc1,182
5,CC(=O)Cc1nc2ccccc2c(=O)o1,120 to 122
6,Cc1cc(-c2cccc(NC(=O)N[C@@H]3c4cc(C#N)ccc4OC(C)(C)[C@H]3O)c2)nn1C,120 to 130
7,Oc1ccc(SSc2ccc(O)cc2)cc1,144 to 146
8,CC(=O)N1CCN(CCN2C=Cc3cc(S(N)(=O)=O)sc3S2(=O)=O)CC1,180 to 183
9,CCCCN(N=Nc1[nH]cnc1C(N)=O)C(C)=N,191
10,CC1(Br)CS(=O)C2C(NC(=O)Cc3ccccc3)C(=O)N2C1C(=O)OCC(Cl)(Cl)Cl (stereo not given),159 to 161
11,COc1ccccc1-c1cc(N)c(S(N)(=O)=O)cc1C,172 to 175
12,Nc1nc2ccccc2c2c1nc(C1CCCC1)n2CCOc1ccccc1,216 to 218
13,N#Cc1c(Cl)c2cc(F)ccc2n(Cc2ccccc2)c1=O,228
14,COC(=O)/C=C1\CCc2cc(C(C)(C)C)ccc21,116 to 118
15,Cc1cc(-c2cc(C(F)(F)F)n3ncc(-c4ccncc4)c3n2)ccc1C(F)(F)F,227
16,Cc1cc(Oc2c(Cl)cc(C(F)(F)F)cc2Cl)nn1C(=O)NCCBr,106 to 107
17,O=C1NC2CC3CC(C2)CC1C3,> 270
18,COC(=O)c1ccc(NC=O)cc1S(=O)(=O)NC(C)(C)C,113 to 114
19,CC(CO)(CO)OCc1ccccc1,89.5 to 90
20,CCOC(=O)CN1C(=O)C(=O)N(C)C1=O,97 to 98.5
21,COc1ccc(C(=O)c2cc(C(C)(C)C)c(O)c(C(C)(C)C)c2)cc1,141 to 142
22,CC(C)c1cc(Cl)nc(C(C)C)c1N,53 to 56
23,CC(=O)Nc1cc2c(cc1C#N)[C@@H](N1CCCC1)[C@H](O)C(C)(C)O2 (relative stereo),175 to 176

row,SMILES,melting point [°C]
1,CSc1ccc(CC2C(C)=Cc3cc(F)ccc32)cc1 (stereo not given),58 to 59
2,Cn1cc(CO)c(=O)c2cc(F)ccc21,209 to 212
3,[N-]=[N+]=NCc1ccc2nc[nH]c2c1,110 to 114
4,Cn1nc(C#N)c(Nc2ccc(F)cc2[N+](=O)[O-])n1,159 to 160
5,CC1(c2ccccc2)OC(C=Cc2ccsc2)=CC1=O (stereo not given),75 to 77
6,CCCC1(C)CC(C)c2ccc(O)c(C)c2O1 (stereo not given),60
7,COCC(=O)N(c1c(C)cccc1C)C1CCOC1=O (stereo not given),118 to 120
8,O=C1NC(=O)c2c1c(O)nc1cc(Cl)c(Cl)cc21,> 350
9,c1ccc(C(c2ccccc2)(c2ccns2)n2cncn2)cc1,235 to 240
10,O=S(c1ccccc1)c1ccc2c(c1)C(O)C(Br)CCO2 (stereo not given),147 to 149
11,O=C1CCCCC1c1ccccc1F (stereo not given),47 to 49
12,COc1cc(OC)c2c(c1)S(=O)(=O)N(COC(=O)c1c(Cl)cccc1Cl)C2=O,200 to 201
13,Cc1cc(C)c(C(O)c2cc(-n3ccnc3)ccc2C)c(C)c1 (stereo not given),190 to 191
14,CCC(=O)[C@@H](NC(=O)OCc1ccccc1)C(C)C,49 to 50
15,COc1ccc2cc(-c3cc4c(cc3[N+](=O)[O-])OCO4)ccc2c1,165 to 167
16,CC(C)Cc1c2c(nn1Cc1ccccc1)c(N)nc1ccccc12,194 to 196
17,N#CCc1cccc(-c2ccc3c(c2)C2(CCCCC2)C(=O)N3)c1,190 to 193
18,Cn1c([N+](=O)[O-])cnc1C1=NO[C@@H]2CCCCCCCCCC[C@@H]12 (relative stereo),121 to 122
19,CC1COCC(C)N1C(=O)N1Cc2c(-c3noc(C4CC4)n3)ncn2-c2ccc(F)cc21 (stereo not given),143 to 146
20,Cc1c(C)c(N2CCN(c3ccn(C)n3)CC2)c(C)c2c1OC(C)(C)C2,147 to 149
21,CN(C)CCNc1ccc(NCCCCC(=O)NOCc2ccccc2)c2c1C(=O)c1ccccc1C2=O,146 to 148
22,c1ccc(Cn2nc(-c3ccco3)c3cncnc32)cc1,106

# Results, then the molecule that gave them:
row,melting point [°C],SMILES
1,224 to 226,O=C(Nc1ccc(C(=O)N2CCCc3ccccc32)cc1)c1ccc(CO)cc1
2,210 to 244,Cc1c(O)cc(N2C(=O)c3ccccc3C2=O)cc1C(=O)OCc1ccc([N+](=O)[O-])cc1
3,> 300,O=C(NN=Cc1c(O)ccc2ccccc12)c1cc2ccccc2cc1O
4,165 to 166,COc1ccc2cc(CC3=C(CC(=O)O)CCCC3=O)ccc2c1Br
5,232,CC(C)(C)NS(=O)(=O)c1cccc(NC(=O)c2cnn3c(C(F)(F)F)cc(-c4ccc(C(F)(F)F)cc4)nc23)c1
6,223 to 225,c1cncc(CCCN2CCc3[nH]c4ccccc4c3C2)c1
7,173 to 174,O=C1CCCc2cc(CCN3CCN(c4nsc5ccccc45)CC3)ccc2N1
8,122 to 123,O=C(NCC1CCN(C(=O)OCc2ccccc2)CC1)c1ccc(O)cc1
9,142,OCCC=Cc1ccc(-c2ccccc2)cc1
10,48 to 53,COc1ccccc1CN[C@H]1CCCN(CCCCCCc2ccccc2)[C@H]1c1ccccc1 (relative stereo)
11,114 to 115,COc1ccc(NC(=O)c2ccc(Br)s2)cc1N1CCN(C)CC1
12,191 to 193,COCCCNC(=O)Nc1ccc(N(C)C)cc1C(=O)NCC1CCN(C(c2ccccc2)c2ccccc2)CC1
13,150,COc1cc2c(cc1OC)CN(CCc1ccc(N)cc1)C2
14,172 to 174,Cc1ccc(S(=O)(=O)NC(=O)Nc2nc(-c3ccccc3)c(-c3ccc(=O)n(C(C)C)n3)s2)cc1
15,80,CC(=O)N(C1(c2ccc(OCc3ccc4ccccc4n3)cc2)CCCC1)S(=O)(=O)c1ccccc1C
16,79 to 80,COC(=O)C(c1ccc(-c2ccccc2F)cc1)S(C)=O (stereo not given)

row,melting point [°C],SMILES
1,141 to 143,O=C(Cl)[C@H](Cc1ccccc1)NS(=O)(=O)c1ccc2ccccc2c1
2,40 to 42,C[C@@H]1CCCN1CCCOc1ccc(C(=O)Cc2ccccn2)cc1
3,232 to 234,O=C(NCC1CC1)c1[nH]c2ccc(Cl)cc2c1S(=O)(=O)c1ccccc1
4,158 to 159,CSc1ccc(C(=O)Nc2cccnc2C(=O)Nc2ccc(Cl)cn2)c(OCCN)c1
5,97 to 98,COc1ccc(C(NCCNC(c2ccccc2)c2ccc(OC)cc2)c2ccccc2)cc1 (stereo not given)
6,161 to 162,O=C(O)CCc1cn(Cc2ccc(OCc3cncc(-c4ccccc4)c3)cc2)nc1-c1ccccc1
7,129 to 133,CS(=O)(=O)c1ccc(-c2cc(C(F)(F)F)nn2-c2ccc(CO)cc2)cc1
8,108 to 110,ICCCCCCOc1ccc(C2=C(c3ccccc3)CCCc3cc(OC4CCCCO4)ccc32)cc1 (stereo not given)
9,119 to 120,CSCC(=O)[C@H](CCc1ccccc1)NC(=O)[C@H](CC(C)C)NC(=O)OCc1ccccc1
10,70 to 71,CCCCC(Cc1ccc(OCCNC(=O)c2ccc(-c3cc(C)c(OCOC)c(C)c3)cc2)cc1)C(=O)OCC (stereo not given)
11,229 to 232,Oc1ccc2c(c1)COc1c-2cc2ccc(O)cc2c1-c1ccc(F)cc1
12,197 to 199,Cc1ccc(-c2nnc(N3CCC(=O)CC3)nc2-c2ccc(C)cc2)cc1
13,161 to 163,CC(C)c1cccc(C(C)C)c1NC(=O)CN1CCN(CCSc2nc3ccccc3o2)CC1
14,> 200,O=c1[nH]c2c(n(O)c1=O)C1=C(CCC(n3ccc(CN4CCN(Cc5ccccc5)CC4)c3)=C1)CC2
15,189 to 191,N=C(Nc1ccc(F)c(NC(=O)/C=C/c2ccccc2Cl)c1)c1ccccc1
16,197 to 200,COc1cccc(C(=O)n2c3c(c4ccccc42)CC(C(=O)O)CC3)c1 (stereo not given)

# Reference: a melting point compilation (Tetko et al.; mined from patent text by program, amines drawn as free bases though some values may be those of a salt)
